Measurements from patent US12214036B2, “Combination therapy comprising AXL/MER and PD-1/PD-L1 inhibitors” (Incyte Corporation, priority 2020, dated 2025).

Molecular target: T1, MER (Homo sapiens, UniProt Q12866)
T1 sequence (Q12866 21-999): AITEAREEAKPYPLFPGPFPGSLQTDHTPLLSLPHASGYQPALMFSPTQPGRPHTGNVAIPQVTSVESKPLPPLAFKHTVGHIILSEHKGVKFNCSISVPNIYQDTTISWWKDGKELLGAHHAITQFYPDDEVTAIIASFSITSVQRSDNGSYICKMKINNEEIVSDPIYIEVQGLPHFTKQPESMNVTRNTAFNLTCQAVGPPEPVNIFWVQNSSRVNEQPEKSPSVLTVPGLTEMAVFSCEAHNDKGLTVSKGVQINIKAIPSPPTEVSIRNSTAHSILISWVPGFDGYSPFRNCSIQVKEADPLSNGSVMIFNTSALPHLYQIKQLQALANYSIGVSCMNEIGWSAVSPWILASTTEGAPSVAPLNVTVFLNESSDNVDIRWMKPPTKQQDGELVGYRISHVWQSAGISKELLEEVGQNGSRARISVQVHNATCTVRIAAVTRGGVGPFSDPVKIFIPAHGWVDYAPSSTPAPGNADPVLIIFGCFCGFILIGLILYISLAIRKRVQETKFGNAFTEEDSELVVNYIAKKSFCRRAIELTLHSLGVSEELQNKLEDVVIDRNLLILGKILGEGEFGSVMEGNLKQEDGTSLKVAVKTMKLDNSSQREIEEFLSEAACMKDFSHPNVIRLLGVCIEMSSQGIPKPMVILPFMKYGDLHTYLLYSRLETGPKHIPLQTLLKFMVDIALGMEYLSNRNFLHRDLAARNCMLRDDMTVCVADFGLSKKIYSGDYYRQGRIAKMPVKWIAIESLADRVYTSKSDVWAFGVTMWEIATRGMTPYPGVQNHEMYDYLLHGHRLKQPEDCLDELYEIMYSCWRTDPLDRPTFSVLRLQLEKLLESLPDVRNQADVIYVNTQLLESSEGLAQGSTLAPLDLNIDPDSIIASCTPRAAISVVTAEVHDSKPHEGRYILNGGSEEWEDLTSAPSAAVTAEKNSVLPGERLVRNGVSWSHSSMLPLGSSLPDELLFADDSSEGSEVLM
Assay: Inhibition of MER kinase activity in primary macrophages (Western blot)
Type: cell-based
Details: primary macrophages from human PBMCs, 2 hours pretreatment, MAB8912 stimulation, N=2 (FIG. 4); read-out: IC50, pMER inhibition
Procedure: The ability of Compound 1 to modulate the activity of MER kinase in macrophages was evaluated.
Human peripheral blood mononuclear cells (PBMCs) were separated using Ficoll-Paque density gradient centrifugation and any remaining red blood cells (RBC) were lysed using 1×RBC Lysis Buffer (Cell Signaling Technology) for 5 minutes at room temperature. The PBMCs were washed with PBS before being enriched for monocytes using CD14 microbeads positive selection separation following the manufacturer's protocol as specified (AutoMacs Pro, Miltenyi Biotec, Bergisch Gladbach, Germany). […]
Macrophages were allowed to thaw on ice before being lysed with 250 μL/well of 1× Lysis Buffer (Cell Signaling Technology; #9803) and Halt protease and phosphatase inhibitors (ThermoFisher Scientific) for 1 hour at 4° C. […] Protein lysates were quantified using BCA Protein Assay Kit (Pierce, ThermoFisher Scientific; #23225). […] The membranes were washed again before the bands were detected with SuperSignal West Dura Extended Duration Chemiluminescent substrate (ThermoFisher Scientific) and were visualized using the Fluorochem M Digital Imager (Protein Simple, San Jose, Calif.).

CC(C)C(=O)N1CCC(c2cc(-c3ccc(NC(=O)c4cn(C(C)C)c(=O)n(-c5ccccn5)c4=O)cc3)c3c(N)ncnn23)CC1 [Compound 1, N-(4-(4-Amino-7-(1-isobutyrylpiperidin-4-yl)pyrrolo[1,2-f][1,2,4]triazin-5-yl)phenyl)-1-isopropyl-2,4-dioxo-3-(pyridin-2-yl)-1,2,3,4-tetrahydropyrimidine-5-carboxamide]
IC50: 1.6 ± 0.4 nM
